The results in this text go back to patent publication US11999739B2, “Antimicrobials methods of making and using the same” (BIOVERSYS AG, priority 2016, dated 2024).

Assay [1] concerns Escherichia coli strain ATCC25922. In words: Standard microdilution MIC assay, E. coli. Type of assay: cell-based. The procedure, abridged:
(§1)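 MICs obtained by CLSI-standard microdilution, quality-controlled with reference strains in parallel. Values reported as + or − relative to a 16 micrograms/mL cutoff.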
(In broth dilution the organism is exposed to a series of concentrations in liquid medium.)

The subject of assay [2] is Staphylococcus aureus (S. aureus) 11540 strain. Description: Standard microdilution MIC assay, S. aureus. Type of assay: cell-based. The gist of the method: as §1

What is called MIC is the lowest concentration found to suppress growth. As for `C[C@H](NCCCNC(=N)CF)c1ccc(-n2cc3cc(-c4cc(CCC[C@@H](N)CO)cc(Cl)c4F)[nH]c3nc2=O)cc1F` [Compound 125], the MIC in assay [1] and in assay [2] was at most 16 µg/mL each time.
Consider `CSc1cc(-n2cc3cc(-c4cc(CCC[C@@H](N)CF)cc(Cl)c4F)[nH]c3nc2=O)ccc1[C@@H]1CCC[C@@H](CCNC(C)=N)N1` [Compound 126], for which the MIC in assay [1] and in assay [2] was at most 16 µg/mL throughout.
On to `C=C[C@@H](N)CCCc1cc(Cl)c(F)c(-c2cc3cn(-c4ccc([C@@H]5CCC[C@@H](CCNC(C)=N)N5)c(SC)c4)c(=O)nc3[nH]2)c1` [Compound 128], for which the MIC in assay [1] and in assay [2] was at most 16 µg/mL in each case.
`CSc1cc(-n2cc3cc(-c4cc(CCC(F)(F)CN)cc(Cl)c4F)[nH]c3nc2=O)ccc1[C@@H]1CCC[C@@H](CCNC(C)=N)N1` [Compound 129]: the MIC in assay [1] and in assay [2] was at most 16 µg/mL throughout.
As for `CC(=N)NCCCN[C@H](c1ccc(-n2cc3cc(-c4cc(CCC[C@H](C)N)cc(Cl)c4F)[nH]c3nc2=O)cc1)C(F)(F)F` [Compound 130], the MIC in assay [1] and in assay [2] was at most 16 µg/mL in each case.
Take `CC(=N)NCCCN[C@@H](C)c1ccc(-n2cc3cc(-c4cc(CCCC5(N)CC5)cc(Cl)c4F)[nH]c3nc2=O)cc1` [Compound 131]: the minimum inhibitory concentration (MIC) in assay [1] and in assay [2] was at most 16 µg/mL throughout.
Regarding `CC(=N)NCCCN[C@@H](CO)c1ccc(-n2cc3cc(-c4cc(CCC[C@H](C)N)cc(Cl)c4F)[nH]c3nc2=O)cc1` [Compound 132], the MIC in assay [1] and in assay [2] was at most 16 µg/mL throughout.
Turning to `CC(=N)NCCCN[C@@H](CO)c1ccc(-n2cc3cc(-c4cc(CCC[C@@H](N)CO)cc(Cl)c4F)[nH]c3nc2=O)cc1` [Compound 133], the MIC in assay [1] and in assay [2] was at most 16 µg/mL in each case.
Consider `CC(=N)NCCCN[C@@H](CO)c1ccc(-n2cc3cc(-c4cc(CCC[C@@H](N)C5CC5)cc(Cl)c4F)[nH]c3nc2=O)cc1` [Compound 134], for which the minimal inhibitory concentration (MIC) in assay [1] and in assay [2] was at most 16 µg/mL each time.
As for `CC(=N)NCC[C@@H]1CCC[C@@H](c2ccc(-n3cc4cc(-c5cc(CCC(F)(F)CN)cc(Cl)c5F)[nH]c4nc3=O)cc2)N1C` [Compound 135], the MIC in assay [1] and in assay [2] was at most 16 µg/mL in each case.
Turning to `CC(=N)NCCCN[C@@H](CO)c1ccc(-n2cc3cc(-c4cc(CCC[C@@H](N)CF)cc(Cl)c4F)[nH]c3nc2=O)cc1` [Compound 136], the MIC in assay [1] and in assay [2] was at most 16 µg/mL throughout.
On to `CC(=N)NCC[C@@H]1CCC[C@@H](c2ccc(-n3cc4cc(-c5cc(CCC[C@@H](N)CF)cc(Cl)c5F)[nH]c4nc3=O)cc2)N1C` [Compound 137], for which the MIC in assay [1] and in assay [2] was at most 16 µg/mL in each case.
Turning to `CC(=N)NCCCNC1(c2ccc(-n3cc4cc(-c5cc(CCC[C@@H](N)CO)cc(Cl)c5F)[nH]c4nc3=O)cc2)CC1` [Compound 138], the MIC in assay [1] and in assay [2] was at most 16 µg/mL throughout.
With `CC(=N)NCC[C@@H]1CCC[C@@H](c2ccc(-n3cc4cc(-c5cc(CCC[C@@H](N)C(F)F)cc(Cl)c5F)[nH]c4nc3=O)cc2)N1` [Compound 139], the minimum inhibitory concentration (MIC) in assay [1] and in assay [2] was at most 16 µg/mL throughout.
For the molecule `C=C[C@@H](CCNC(C)=N)NCc1ccc(-n2cc3cc(-c4cc(CCC[C@@H](N)C(F)F)cc(Cl)c4F)[nH]c3nc2=O)cc1` [Compound 140], the minimal inhibitory concentration (MIC) in assay [1] and in assay [2] was at most 16 µg/mL throughout.
Turning to `CC(=N)NCC[C@@H]1CCC[C@@H](c2ccc(-n3cc4cc(-c5cc(CCC[C@H](N)C(F)F)cc(Cl)c5F)[nH]c4nc3=O)cc2)N1` [Compound 141], the MIC in assay [1] and in assay [2] was at most 16 µg/mL in each case.
In the case of `C=C[C@@H](CCNC(C)=N)NCc1ccc(-n2cc3cc(-c4cc(CCC[C@H](N)C(F)F)cc(Cl)c4F)[nH]c3nc2=O)cc1` [Compound 142], the minimal inhibitory concentration (MIC) in assay [1] and in assay [2] was at most 16 µg/mL throughout.
With `CC(=N)NCCCNC1(c2ccc(-n3cc4cc(-c5cc(CCC[C@@H](N)C6CC6)cc(Cl)c5F)[nH]c4nc3=O)cc2)CC1` [Compound 143], the MIC in assay [1] and in assay [2] was at most 16 µg/mL throughout.
Consider `C=C[C@@H](N)CCCc1cc(Cl)c(F)c(-c2cc3cn(-c4ccc(C5(NCCCNC(C)=N)CC5)cc4)c(=O)nc3[nH]2)c1` [Compound 144], for which the MIC in assay [1] and in assay [2] was at most 16 µg/mL each time.
For `CC(=N)NCCCNC1(c2ccc(-n3cc4cc(-c5cc(CCC[C@H](C)N)cc(Cl)c5F)[nH]c4nc3=O)cc2)CC1` [Compound 145], the MIC in assay [1] and in assay [2] was at most 16 µg/mL throughout.
Regarding `C=C[C@@H](CCNC(C)=N)NCc1ccc(-n2cc3cc(-c4cc(CCCC5(N)CC5)cc(Cl)c4F)[nH]c3nc2=O)cc1` [Compound 146], the minimum inhibitory concentration (MIC) in assay [1] and in assay [2] was at most 16 µg/mL each time.
In the case of `CC(=N)NCC[C@@H]1CCC[C@@H](c2ccc(-n3cc4cc(-c5cc(CCCC6(N)CC6)cc(Cl)c5F)[nH]c4nc3=O)cc2)N1` [Compound 147], the MIC in assay [1] and in assay [2] was at most 16 µg/mL in each case.
For the molecule `CC(=N)NCCCN[C@@H](C)c1ccc(-n2cc3cc(-c4cc(CCCC5(N)CC5)cc(Cl)c4F)[nH]c3nc2=O)cc1F` [Compound 148], the MIC in assay [1] and in assay [2] was at most 16 µg/mL in each case.
As to `C=C[C@@H](N)CCCc1cc(Cl)c(F)c(-c2cc3cn(-c4ccc([C@H](C)N[C@@H](C=C)CCNC(C)=N)cc4)c(=O)nc3[nH]2)c1` [Compound 149], the MIC in assay [1] and in assay [2] was at most 16 µg/mL in each case.
As to `C=C[C@@H](CCNC(C)=N)N[C@@H](C)c1ccc(-n2cc3cc(-c4cc(CCC[C@@H](N)CF)cc(Cl)c4F)[nH]c3nc2=O)cc1` [Compound 150], the minimal inhibitory concentration (MIC) in assay [1] and in assay [2] was at most 16 µg/mL in each case.
Turning to `C=C[C@@H](CCNC(C)=N)N[C@@H](C)c1ccc(-n2cc3cc(-c4cc(CCC[C@@H](N)CO)cc(Cl)c4F)[nH]c3nc2=O)cc1` [Compound 151], the MIC in assay [1] and in assay [2] was at most 16 µg/mL each time.
For `CC(=N)NCC[C@H](CO)NCc1ccc(-n2cc3cc(-c4cc(CCCC5(N)CC5)cc(Cl)c4F)[nH]c3nc2=O)cc1` [Compound 153], the MIC in assay [1] and in assay [2] was at most 16 µg/mL in each case.
Take `CC(=N)NCC[C@@H]1CCC[C@@H](c2ccc(-n3cc4cc(-c5cc(CCC[C@@H](N)CC#N)cc(Cl)c5F)[nH]c4nc3=O)cc2)N1` [Compound 154]: the MIC in assay [1] and in assay [2] was at most 16 µg/mL in each case.
For the molecule `C=C[C@@H](CCNC(C)=N)NCc1ccc(-n2cc3cc(-c4cc(CCC[C@@H](N)CC#N)cc(Cl)c4F)[nH]c3nc2=O)cc1` [Compound 155], the MIC in assay [1] and in assay [2] was at most 16 µg/mL each time.
`CC(=N)NCC[C@@H]1CCC[C@@H](c2ccc(-n3cc4cc(-c5cc(CCC[C@@H](N)CC(N)=O)cc(Cl)c5F)[nH]c4nc3=O)cc2)N1` [Compound 156]: the MIC in assay [1] and in assay [2] was at most 16 µg/mL throughout.
`C=C[C@@H](CCNC(C)=N)NCc1ccc(-n2cc3cc(-c4cc(CCC[C@@H](N)CC(N)=O)cc(Cl)c4F)[nH]c3nc2=O)cc1` [Compound 157]: the MIC in assay [1] and in assay [2] was at most 16 µg/mL throughout.
In the case of `C=C[C@@H](N)CCCc1cc(Cl)c(F)c(-c2cc3cn(-c4ccc([C@H](CO)NCCCNC(C)=N)cc4)c(=O)nc3[nH]2)c1` [Compound 158], the MIC in assay [1] and in assay [2] was at most 16 µg/mL throughout.
`CC(=N)NCCCN[C@H](c1ccc(-n2cc3cc(-c4cc(CCC[C@H](C)N)cc(Cl)c4F)[nH]c3nc2=O)cc1)C(F)F` [Compound 159]: the MIC in assay [1] and in assay [2] was at most 16 µg/mL in each case.
Take `COC[C@H](N)CCCc1cc(Cl)c(F)c(-c2cc3cn(-c4ccc([C@@H]5CCC[C@@H](CCNC(C)=N)N5)cc4)c(=O)nc3[nH]2)c1` [Compound 160]: the MIC in assay [1] and in assay [2] was at most 16 µg/mL throughout.
Turning to `C=C[C@H](NCCCNC(C)=N)c1ccc(-n2cc3cc(-c4cc(CCC[C@H](C)N)cc(Cl)c4F)[nH]c3nc2=O)cc1` [Compound 161], the minimum inhibitory concentration (MIC) in assay [1] and in assay [2] was at most 16 µg/mL each time.
Regarding `CC(=N)NCC[C@H](CO)N[C@@H](C)c1ccc(-n2cc3cc(-c4cc(CCC[C@@H](N)CO)cc(Cl)c4F)[nH]c3nc2=O)cc1F` [Compound 163], the minimum inhibitory concentration (MIC) in assay [1] and in assay [2] was at most 16 µg/mL in each case.
In the case of `C=C[C@@H](CCNC(C)=N)N[C@@H](C)c1ccc(-n2cc3cc(-c4cc(CCC[C@@H](N)C5CC5)cc(Cl)c4F)[nH]c3nc2=O)cc1` [Compound 164], the MIC in assay [1] and in assay [2] was at most 16 µg/mL in each case.
As to `CC(=N)NCC[C@H](CNc1ncc[nH]1)N[C@@H](C)c1ccc(-n2cc3cc(-c4cc(CCC[C@H](C)N)cc(Cl)c4F)[nH]c3nc2=O)cc1` [Compound 165], the minimum inhibitory concentration (MIC) in assay [1] and in assay [2] was at most 16 µg/mL in each case.
As for `C=C[C@@H](N)CCCc1cc(Cl)c(F)c(-c2cc3cn(-c4ccc([C@@H]5CCC[C@@H](CCNC(C)=N)N5)c(F)c4)c(=O)nc3[nH]2)c1` [Compound 166], the MIC in assay [1] and in assay [2] was at most 16 µg/mL each time.
Turning to `CC(=N)NCC[C@@H]1CCC[C@@H](c2ccc(-n3cc4cc(-c5cc(CCC[C@@H](N)C6CC6)cc(Cl)c5F)[nH]c4nc3=O)cc2F)N1` [Compound 167], the MIC in assay [1] and in assay [2] was at most 16 µg/mL throughout.
On to `C=C[C@@H](CCNC(C)=N)N[C@@H](C)c1ccc(-n2cc3cc(-c4cc(CCC[C@@H](N)CO)cc(Cl)c4F)[nH]c3nc2=O)cc1F` [Compound 168], for which the MIC in assay [1] and in assay [2] was at most 16 µg/mL in each case.
As to `CC(=N)NCC[C@@H]1CCC[C@@H](c2ccc(-n3cc4cc(-c5cc(CCCC6(N)CC6)cc(Cl)c5F)[nH]c4nc3=O)cc2F)N1` [Compound 169], the MIC in assay [1] and in assay [2] was at most 16 µg/mL each time.
Consider `CC(=N)NCC[C@@H]1CCC[C@@H](c2ccc(-n3cc4cc(-c5cc(CCC[C@@H](N)CF)cc(Cl)c5F)[nH]c4nc3=O)cc2F)N1` [Compound 170], for which the MIC in assay [1] and in assay [2] was at most 16 µg/mL each time.
With `COC[C@H](N)CCCc1cc(Cl)c(F)c(-c2cc3cn(-c4ccc([C@@H]5CCC[C@@H](CCNC(C)=N)N5)c(F)c4)c(=O)nc3[nH]2)c1` [Compound 171], the MIC in assay [1] and in assay [2] was at most 16 µg/mL throughout.
